Measurements published in patent publication US20130071897A1, “METHOD FOR CONTROLLING UNDESIRABLE BYPRODUCTS FORMATION CAUSED BY CONTAMINATING ORGANISMS IN THE PRODUCTION OF ETHANOL FROM SYNGAS” (COSKATA, INC., priority 2011, published 2013).

Columns and labels:
[1] = system: Clostridium carboxydivorans; assay: Balch tube batch growth of heteroacetogenic bacteria Clostridium carboxydivorans on fructose, optical density; format: cell-based; design: key to Optical density valuation of C. carboxidivorans: +: bacterial growth to an OD of approximately 1.8; +/−: one duplicate test tube showed a + indication and the other showed an optical density of less than 0.5; conditions: for Optical density valuation of C. carboxidivorans: added 20 h after inoculation; for Inhibition effect for reducing butyrogen growth: summary of Examples 1-5
Procedure: Similar experiments were conducted to determine the effect of the crotonate derivatives on heteroacetogenic bacteria. Selected crotonate derivatives were tested in a series of batch experiments to determine the growth response of butyrogens to the presence of the compounds at varying concentrations. The batch experiments were all conducted by anoxically filling a 20 ml Balch tube with 5 ml of a fermentation medium having the composition given in Tables 2 and 3. The media included 0.5 v/v final concentration of a fructose substrate. For each of the crotonate concentrations tested, duplicate test tubes were prepared.
Each tube was inoculated with 0.5 ml of the heteroacetogenic bacteria Clostridium carboxydivorans. The tubes were maintained at a temperature of 37° C. At a time 20 hours after the inoculation of the bacteria different crotonate derivatives from Table 1 were added to different tubes in the amounts indicated in Table 7. This was at a time of early to mid-log phase growth. Each fermentation of the bacteria in the media at the different concentration of crotonate derivatives were allowed to progress and were monitored to determine the bacteria growth at selected intervals of time varying from approximately 20 hours to 54 hours. Growth at the different intervals was measured by reading the optical density (OD) of the fermentation liquid. Optical density was measured as described in Example 1. The ability of a tube fermentation at a particular concentration of crotonate derivative to reach a predetermined optical density was recorded in Table 7. Table 7 indicates the presence of bacterial growth to an OD of approximately 1.8 with a “+”.
Compound A was tested again in set of experiments in all respects the same as that described for Example 4 except that compound A was added to Balch tubes in the amounts indicated in Table 7 at a time 5.5 hours after the inoculation of the bacteria. This was at a time in early log phase growth. In this case the Balch tube that contained no compound A reached an OD of 2 after 29 hours or less.

C. coskatii = assay: Balch tube batch growth of homoacetogen C. coskatii on fructose, optical density; format: cell-based; conditions: added 21 h after inoculation
Procedure: Compounds A and D were again tested to determine their effect on another known homoacetogen. Each compound was tested in a series of batch experiments to determine the growth response of the homoacetogen to the presence of the compound at varying concentrations. These batch experiments were again all conducted by anoxically filling a Balch tube with 5 ml of a fermentation medium having the composition given in Tables 2 and 3. To expedite results, these batch experiments used fructose as the growth nutrient source for bacteria. Thus, the media included 5 g/L of fructose.
Each tube was inoculated with 0.5 ml of the same strain of C. coskatii bacteria seed culture inoculum. The tubes were maintained at a temperature of 37° C. Twenty one hours after the inoculation of the tube with the bacteria, the different crotonate derivatives from Table 1 were added to different tubes in the amounts indicated in Table 5. This was at a time of early to mid-log phase growth for the bacteria. Each fermentation of the bacteria in the media at the different concentration of crotonate derivatives were allowed to progress and were monitored to determine the bacteria growth at selected intervals of time varying from approximately 20 hours to 50 hours. Growth at the intervals was determined by measurement of the OD in the manner described in Example 1. The ability of a tube fermentation at a particular concentration of crotonate derivative to reach a predetermined optical density was recorded in Table 5. Table 5 indicates the presence of bacterial growth to an OD of approximately 1.6 or above with a “+”. All the samples of C. Coskatii reached a relatively high OD after a time of only 50 hours.

acyl-CoA dehydrogenases = assay: In vitro acyl-CoA dehydrogenase ferrocenium assay with C. tyrobutyricum cell-free extract; format: biochemical; conditions: 0.5 to 10 mM compound, rate of ferrocenium reduction at 300 nm
Summary of the method: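 Lysozyme-lysed cell-free extract of early-log C. tyrobutyricum was assayed anaerobically at laboratory temperature in 50 mM Tris-HCl pH 7.6 with 0.05 mM butyryl-CoA, FAD and 0.4 mM ferrocenium. Ferrocenium reduction was followed at 300 nm over 10–20 min, and the rate slope was plotted against compound concentration to give a dose-response slope.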

Row | Structure (SMILES) | Optical density valuation of C. carboxidivorans ([1]; 100 ppm(m)) | Optical density valuation of C. carboxidivorans ([1]; 500 ppm(m)) | Optical density valuation of C. carboxidivorans ([1]; 1000 ppm(m)) | Inhibition effect for reducing butyrogen growth [1] | Optical density valuation of C. coskatii (C. coskatii; 100 ppm(m)) | Optical density valuation of C. coskatii (C. coskatii; 500 ppm(m)) | Optical density valuation of C. coskatii (C. coskatii; 1000 ppm(m)) | Dose-Response Slope (acyl-CoA dehydrogenases) | Dose-Response Slope (acyl-CoA dehydrogenases; listed as Ethyl 4,4,4-trifluoro-3-(trifluoromethyl)crotonate) | OD of C. carboxidivorans tube fermentations ([1]; 500 and 1000 ppm added 5.5 hours after inoculation)
1 | O=C(O)C=C(C(F)(F)F)C(F)(F)F [D, 4,4,4-trifluoro-3-(trifluoromethyl)crotonic acid] | + (bacterial growth to an OD of approximately 1.8) | + (bacterial growth to an OD of approximately 1.8) | +/− | showed inhibition effect | + (bacterial growth to an OD of approximately 1.6 or above) | + (bacterial growth to an OD of approximately 1.6 or above) | + (bacterial growth to an OD of approximately 1.6 or above) |  |  | 
2 | CCOC(=O)/C=C(\N)C(F)(F)F [B, ethyl-3-amino-4,4,4-trifluorocrotonate] |  |  |  |  |  |  |  | 25 |  | 
3 | CCOC(=O)C=C(C(F)(F)F)C(F)(F)F [Compound A, ethyl 4,4,4-trifluoro-3-(trifluoromethyl)crotonate] | + (bacterial growth to an OD of approximately 1.8) | + (bacterial growth to an OD of approximately 1.8) | + (bacterial growth to an OD of approximately 1.8) | showed inhibition effect | + (bacterial growth to an OD of approximately 1.6 or above) | + (bacterial growth to an OD of approximately 1.6 or above) | + (bacterial growth to an OD of approximately 1.6 or above) | about 8 | 8 | ≤ 0.5
